These results are taken from patent US10858335B2 (Rigel Pharmaceuticals, Inc., priority 2014, dated 2020).

One test concerns GDF8 signaling (p-SMAD-3 (Ser423/425)). Kind of test: AlphaScreen SureFire SMAD3 (p-Ser423/425) assay, GDF8-stimulated cells (GDF pSMAD). It counts as cell-based. Conditions: Mus musculus, MPC-11, GDF8-stimulated pSMAD3, MPC11; tested as the salt form given; read-out: GDF pSMAD (MPC11) (μM), inhibition of GDF8 signaling.
As for `O=C(O)CNc1ncnc2ccc(-c3cccnc3-c3cc(Cl)ccc3F)cc12` [compound 1031, (6-(2-(5-chloro-2-fluorophenyl)pyridin-3-yl)quinazolin-4-yl)glycine], the IC50 amounted to 15.8 µM.

Consider `Cc1cc(-c2ncccc2-c2cc(C)c3ncnc(N)c3c2)ccc1F` [compound 986, 6-(2-(4-fluoro-3-methylphenyl)pyridin-3-yl)-8-methylquinazolin-4-amine], for which the IC50 came out at 0.956 µM.

Take `CCc1cccc(-c2ncccc2-c2ccc3ncnc(N)c3c2)c1` [compound 1007, 6-(2-(3-ethylphenyl)pyridin-3-yl)quinazolin-4-amine]: the IC50 came to 0.223 µM.

Regarding `Cc1ccc(Cl)cc1-c1ncccc1-c1ccc2ncsc2c1` [compound 1057], the IC50 stood at 0.371 µM.

As to `Cc1cc(-c2ncccc2-c2ccc3ncnc(NC(C)C(N)=O)c3c2)ccc1F` (stereo not drawn) [compound 1027, 2-((6-(2-(4-fluoro-3-methylphenyl)pyridin-3-yl)quinazolin-4-yl)amino)propanamide], the IC50 was 10.8 µM.

As to `COC(=O)CNc1ncnc2ccc(-c3cccnc3-c3ccc(F)c(C)c3)cc12` [compound 1028, methyl (6-(2-(4-fluoro-3-methylphenyl)pyridin-3-yl)quinazolin-4-yl)glycinate], the IC50 worked out at 10.4 µM.

Staying with this test, now noted: Mus musculus, MPC-11, MPC11; GDF8-stimulated; p-SMAD3 AlphaScreen; read-out: GDF pSMAD (MPC11) (inhibition of GDF8 signaling).
As for `Cc1cnc2ccc(-c3cccnc3-c3cccc(C(F)(F)F)c3)cn12` [compound 530, 3-Methyl-6-(2-(3-(trifluoromethyl)phenyl)pyridin-3-yl)imidazo[1,2-a]pyridine], the IC50 is 0.625 µM.

Regarding `Cc1cc(-c2ncccc2-c2ccn3ncc(C(=O)N[C@@H]4CCCC[C@H]4N)c3c2)ccc1F` [compound 663, N-((1R,2R)-2-Aminocyclohexyl)-5-(2-(4-fluoro-3-methylphenyl)pyridin-3-yl)pyrazolo[1,5-a]pyridine-3-carboxamide], the IC50 was determined as 8.09 µM.

Take `COc1ccc(NC(=O)c2cnc3ccc(-c4cccnc4-c4ccc(F)c(C)c4)cn23)cc1OC` [compound 582, N-(3,4-Dimethoxyphenyl)-6-(2-(4-fluoro-3-methylphenyl)pyridin-3-yl)imidazo[1,2-a]pyridine-3-carboxamide]: the IC50 was 0.494 µM.

For `N#Cc1cnn2ccc(-c3cccnc3-c3ccc(F)c(Cl)c3)nc12` [compound 900, 5-(2-(3-Chloro-4-fluorophenyl)pyridin-3-yl)pyrazolo[1,5-a]pyrimidine-3-carbonitrile], the IC50 amounted to 2.35 µM.

Take `Cc1ccccc1-c1ncccc1-c1ccc2ncnc(N)c2c1` [compound 462, 6-(2-(o-Tolyl)pyridin-3-yl)quinazolin-4-amine]: the IC50 came out at 18.4 µM.

In the case of `Cc1cc(O)cc(-c2ncccc2-c2ccc3ncnc(N)c3c2)c1` [compound 495, 3-(3-(4-Aminoquinazolin-6-yl)pyridin-2-yl)-5-methylphenol], the IC50 is 0.247 µM.

For the molecule `Cc1cc(-c2ncccc2-c2ccc3ncnc(NCCc4cccnc4)c3c2)ccc1F` [compound 414, 6-(2-(4-Fluoro-3-methylphenyl)pyridin-3-yl)-N-(2-(pyridin-3-yl)ethyl)quinazolin-4-amine], the IC50 was 3.33 µM.

`Cc1cc(-c2nc3c(cc2-c2ccc4ncccc4c2)NC(=O)CO3)ccc1F` [compound 293, 6-(4-Fluoro-3-methylphenyl)-7-(quinolin-6-yl)-1H-pyrido[2,3-b] [1,4]oxazin-2(3H)-one]: the IC50 worked out at 5.54 µM.

Turning to `CC(C)c1cccc(-c2ncccc2-c2ccc3ncnc(N)c3c2)c1` [compound 478, 6-(2-(3-Isopropylphenyl)pyridin-3-yl)quinazolin-4-amine], the IC50 was 6.6 µM.

With `Cc1cc(-c2ncc(NC(=O)CCN3CCOCC3)cc2-c2ccc3ncsc3c2)ccc1F` [compound 312, N-(5-(Benzo[d]thiazol-6-yl)-6-(4-fluoro-3-methylphenyl)pyridin-3-yl)-3-morpholinopropanamide], the IC50 turned out to be 7.54 µM.

Take `Fc1cnc(-c2ccc(F)c(Cl)c2)c(-c2ccn3ncnc3c2)c1` [compound 860, 7-(2-(3-Chloro-4-fluorophenyl)-5-fluoropyridin-3-yl)-[1,2,4]triazolo[1,5-a]pyridine]: the IC50 worked out at 9.98 µM.

Consider `Cc1cc(-c2ncccc2-c2ccc3[nH]ncc3c2)ccc1O` [Compound 122, 4-(3-(1H-Indazol-5-yl)pyridin-2-yl)-2-methylphenol], for which the IC50 worked out at 4.04 µM.

Take `Cc1cc(-c2ncc(NCc3cccnc3)cc2-c2ccc3nccnc3c2)ccc1F` [compound 244, 6-(4-Fluoro-3-methylphenyl)-N-(pyridin-3-ylmethyl)-5-(quinoxalin-6-yl)pyridin-3-amine]: the IC50 amounted to 0.798 µM.

Turning to `Cc1cccc(-c2ncccc2-c2ccc3nccc(N4CCOCC4)c3c2)c1` [compound 548, 4-(6-(2-(m-Tolyl)pyridin-3-yl)quinolin-4-yl)morpholine], the IC50 was found to be 16.4 µM.

With `Cc1cnc2ccc(-c3cccnc3-c3cccc(C4CC4)c3)cn12` [compound 529, 6-(2-(3-Cyclopropylphenyl)pyridin-3-yl)-3-methylimidazo[1,2-a]pyridine], the IC50 was 0.323 µM.

`N#Cc1cnc2ccc(-c3cccnc3-c3cc(Cl)ccc3F)cn12` [compound 719, 6-(2-(5-Chloro-2-fluorophenyl)pyridin-3-yl)imidazo[1,2-a]pyridine-3-carbonitrile]: the IC50 was 0.402 µM.

In the case of `Cc1cc(-c2ncccc2-c2ccc3ncncc3c2)ccc1F` [compound 363, 6-(2-(4-Fluoro-3-methylphenyl)pyridin-3-yl)quinazoline], the IC50 stood at 0.903 µM.

For the molecule `Cc1cc(-c2ncccc2-c2ccc3ncc(N(C)C)n3c2)ccc1F` [compound 551, 6-(2-(4-Fluoro-3-methylphenyl)pyridin-3-yl)-N,N-dimethylimidazo[1,2-a]pyridin-3-amine], the IC50 was determined as 4.88 µM.

Take `Fc1ccc(Cl)cc1-c1ncccc1-c1ccc2nccnc2n1` [compound 742, 6-(2-(5-Chloro-2-fluorophenyl)pyridin-3-yl)pyrido[2,3-b]pyrazine]: the IC50 was 1.82 µM.

For `Cc1cc(-c2ncccc2-c2ccc3ccncc3c2)ccc1F` [Compound 209, 7-(2-(4-Fluoro-3-methylphenyl)pyridin-3-yl)isoquinoline], the IC50 turned out to be 18.2 µM.

Turning to `Cc1cc(-c2ncc(Cl)cc2-c2ccc3[nH]ncc3c2)ccc1F` [Compound 9, 5-(5-Chloro-2-(4-fluoro-3-methylphenyl)pyridin-3-yl)-1H-indazole], the IC50 amounted to 5.13 µM.

As to `Fc1cc(-c2ncccc2-c2ccn3ncnc3c2)cc(F)c1F` [compound 875, 7-(2-(3,4,5-Trifluorophenyl)pyridin-3-yl)-[1,2,4]triazolo[1,5-a]pyridine], the IC50 is 12.4 µM.

As to `FC(F)Oc1cccc(-c2ncccc2-c2ccn3nccc3n2)c1` [compound 921, 5-(2-(3-(Difluoromethoxy)phenyl)pyridin-3-yl)pyrazolo[1,5-a]pyrimidine], the IC50 was 0.0706 µM.

For the molecule `Nc1ccc(-c2ccc3[nH]ncc3c2)c(-c2cccc(C3CC3)c2)n1` [Compound 22, 6-(3-Cyclopropylphenyl)-5-(1H-indazol-5-yl)pyridin-2-amine], the IC50 was 1.41 µM.

In the case of `COc1cccc(-c2ncccc2-c2ccc3[nH]ncc3c2)c1` [Compound 117, 5-(2-(3-Methoxyphenyl)pyridin-3-yl)-1H-indazole], the IC50 was 0.179 µM.

Take `Cc1cc(-c2ncccc2-c2ccc3[nH]cnc(=O)c3c2)ccc1F` [compound 346, 6-(2-(4-Fluoro-3-methylphenyl)pyridin-3-yl)quinazolin-4(1H)-one]: the IC50 stood at 0.193 µM.

Consider `Fc1ccc(-c2ncccc2-c2ccc3ncnc(Nc4cccnc4)c3c2)cc1Cl` [compound 490, 6-(2-(3-Chloro-4-fluorophenyl)pyridin-3-yl)-N-(pyridin-3-yl)quinazolin-4-amine], for which the IC50 was 6.51 µM.

`Cc1cc(-c2ncc(NCc3ccc(C#N)cc3)cc2-c2ccc3ncsc3c2)ccc1F` [compound 309, 4-(((5-(Benzo[d]thiazol-6-yl)-6-(4-fluoro-3-methylphenyl)pyridin-3-yl)amino)methyl)benzonitrile]: the IC50 amounted to 1.48 µM.

As for `NC(=O)c1cnc2ccc(-c3cccnc3-c3ccc(F)c(C4CC4)c3)cn12` [compound 224, 6-(2-(3-Cyclopropyl-4-fluorophenyl)pyridin-3-yl)imidazo[1,2-a]pyridine-3-carboxamide], the IC50 turned out to be 0.621 µM.

On to `Cc1cc(-c2ncccc2-c2ccnc(Nc3cccc(N4CCOCC4)c3)n2)ccc1F` [compound 905, 4-(2-(4-Fluoro-3-methylphenyl)pyridin-3-yl)-N-(3-morpholinophenyl)pyrimidin-2-amine], for which the IC50 was 1.49 µM.

For `Cc1cc(-c2ncccc2-c2ccn3c(C(=O)O)ncc3c2)ccc1F` [compound 258, 7-(2-(4-Fluoro-3-methylphenyl)pyridin-3-yl)imidazo[1,5-a]pyridine-3-carboxylic acid], the IC50 worked out at 1.27 µM.

`[2H]C([2H])([2H])c1cccc(-c2ncccc2-c2ccn3nccc3n2)c1` [compound 602, 5-(2-(3-(Methyl-d3)phenyl)pyridin-3-yl)pyrazolo[1,5-a]pyrimidine]: the IC50 was determined as 0.0681 µM.

On to `COc1cccc(-c2ncccc2-c2ccc3ncc(C#N)n3c2)c1` [compound 626, 6-(2-(3-Methoxyphenyl)pyridin-3-yl)imidazo[1,2-a]pyridine-3-carbonitrile], for which the IC50 worked out at 0.346 µM.

For the molecule `Cc1cc(-c2ncc(NCc3ccc(S(N)(=O)=O)cc3)cc2-c2ccc3ncsc3c2)ccc1F` [compound 359, 4-(((5-(Benzo[d]thiazol-6-yl)-6-(4-fluoro-3-methylphenyl)pyridin-3-yl)amino)methyl)benzenesulfonamide], the IC50 was 0.524 µM.

As to `N#CCOc1cccc(-c2ncccc2-c2ccc3ncnc(N)c3c2)c1` [compound 481, 2-(3-(3-(4-Aminoquinazolin-6-yl)pyridin-2-yl)phenoxy)acetonitrile], the IC50 was 1.28 µM.

Regarding `FC(F)(F)c1cccc(-c2ncccc2-c2ccn3cncc3c2)c1` [compound 597, 7-(2-(3-(Trifluoromethyl)phenyl)pyridin-3-yl)imidazo[1,5-a]pyridine], the IC50 was found to be 0.837 µM.
